Measurements: ChEMBL document CHEMBL5257026, “Progress and prospects on DENV protease inhibitors” (Eur J Med Chem, 2016)
Blank lines part the entries; values can stand above or below the compound they belong to. Residues, ends and D or L forms follow the SMILES beside them.

Legend:
[1] = Inhibition of DENV2 TSV01 NS2B-NS3 protease using BOC-GRR-AMC as substrate incubated for 30 mins by spectrofluorometeric assay; set-up: species or system dengue virus type 2
[2] = Inhibition of DENV2 NS2B-NS3 protease using Boc-Gly-Lys-Arg-AMC as substrate incubated for 30 mins by fluorescence assay; set-up: species or system dengue virus type 2
[3] = Selectivity index, ratio of CC50 for cytotoxicity against African green monkey Vero cells to EC50 for antiviral activity against DENV3 P12-08 infected in African green monkey Vero cells; type: toxicity, cell-based; conditions: read-out: Ratio CC50/EC50
[4] = Selectivity index, ratio of CC50 for cytotoxicity against African green monkey Vero cells to EC50 for antiviral activity against DENV4 P11-08 infected in African green monkey Vero cells; type: toxicity, cell-based; conditions: read-out: Ratio CC50/EC50
[5] = Selectivity index, ratio of CC50 for cytotoxicity against African green monkey Vero cells to EC50 for antiviral activity against DENV1 P03-08 infected in African green monkey Vero cells; type: toxicity, cell-based; conditions: read-out: Ratio CC50/EC50
[6] = Selectivity index, ratio of CC50 for cytotoxicity against African green monkey Vero cells to EC50 for antiviral activity against DENV2 New Guinea C infected in African green monkey Vero cells; type: toxicity, cell-based; conditions: read-out: Ratio CC50/EC50
[7] = Inhibition of DENV1 NS2B-NS3 protease expressed in Escherichia coli BL21 (DE3) using Bz-Nle-Lys-Arg-Arg-AMC as substrate preincubated for 30 mins followed by substrate addition by fluorescence plate reader analysis; set-up: species or system dengue virus type 1
[8] = Inhibition of DENV2 NS2B-NS3 protease expressed in Escherichia coli BL21 (DE3) using Bz-Nle-Lys-Arg-Arg-AMC as substrate preincubated for 30 mins followed by substrate addition by fluorescence plate reader analysis; set-up: species or system dengue virus type 2
[9] = Inhibition of DENV4 NS2B-NS3 protease expressed in Escherichia coli BL21 (DE3) using Bz-Nle-Lys-Arg-Arg-AMC as substrate preincubated for 30 mins followed by substrate addition by fluorescence plate reader analysis; set-up: species or system dengue virus type 4
[10] = Inhibition of DENV3 NS2B-NS3 protease expressed in Escherichia coli BL21 (DE3) using Bz-Nle-Lys-Arg-Arg-AMC as substrate preincubated for 30 mins followed by substrate addition by fluorescence plate reader analysis; set-up: species or system dengue virus type 3
[11] = Inhibition of DENV2 NS2B-NS3 protease using Bz-Nle-Lys-Arg-Arg-AMC as substrate preincubated for 15 mins followed by substrate addition by fluorescence assay; set-up: species or system dengue virus type 2
dengue virus type 2 = experiment: Antiviral activity against DENV2 infected in Golden hamster BHK-21 cells assessed as reduction in viral titer incubated for 72 hrs by plaque-forming assay; type: functional, organism-based; conditions: BHK-21, 72 h
[12] = Inhibition of DENV2 N-terminally hexa-His tagged NS2B (49 to 92 residues) -NS3 (1 to 184 residues) protease using Ac-TTSTRR-pNA as substrate preincubated for 10 mins followed by substrate addition and measured after 120 mins by HTS assay; set-up: species or system dengue virus type 2
[13] = Inhibition of DENV4 recombinant NS2B-NS3 protease expressed in Escherichia coli using Abz-RRRRSAG-nY-NH2 as substrate preincubated for 20 mins at 37 degC followed by substrate addition measured after 60 mins by fluorescence spectrophotometric analysis; set-up: species or system dengue virus type 4
[14] = Inhibition of DENV3 recombinant NS2B-NS3 protease expressed in Escherichia coli using Abz-RRRRSAG-nY-NH2 as substrate preincubated for 20 mins at 37 degC followed by substrate addition measured after 60 mins by fluorescence spectrophotometric analysis; set-up: species or system dengue virus type 3
[15] = Inhibition of DENV1 recombinant NS2B-NS3 protease expressed in Escherichia coli using Abz-RRRRSAG-nY-NH2 as substrate preincubated for 20 mins at 37 degC followed by substrate addition measured after 60 mins by fluorescence spectrophotometric analysis; set-up: species or system dengue virus type 1
[16] = Inhibition of DENV2 recombinant NS2B-NS3 protease expressed in Escherichia coli using Abz-RRRRSAG-nY-NH2 as substrate preincubated for 20 mins at 37 degC followed by substrate addition measured after 60 mins by fluorescence spectrophotometric analysis; set-up: species or system dengue virus type 2

IC50 [7]: 2 µM
IC50 [8]: 2.3 µM
IC50 [9]: 2 µM
IC50 [10]: 1.6 µM
Compound: O=C(Nc1nc2cc(O)c(O)cc2s1)c1ccccc1Oc1ccc2cc(O)ccc2c1

IC50 [11]: 48.2 µM
Compound: CCc1ccc(NS(=O)(=O)c2ccc(N3C(=O)c4ccccc4C3=O)cc2)cc1

IC50 [12]: 22.6 µM
Compound: c1ccc(-c2ccc(Nc3nnc(Nc4ccc(C5=NCCN5)cc4)c4ccccc34)cc2)cc1
EC50 (dengue virus type 2): 0.23 µM

Further lines, the compound ahead of its results:

Compound: O=C1c2c(O)ccc([N+](=O)[O-])c2C(=O)c2c([N+](=O)[O-])ccc(O)c21
Ki [1]: 432 µM
Ki [2]: 4.2 µM

Compound: Cc1ccc(S(=O)(=O)Nc2cc(SCC(=O)O)c(O)c3ccccc23)cc1[N+](=O)[O-]
selectivity ratio [3]: 27.7
selectivity ratio [4]: 90.8
selectivity ratio [5]: 69.3
selectivity ratio [6]: 68.6

Compound: NC(=O)[C@H](Cc1c[nH]c2ccccc12)NC(=O)[C@H](CS)NC(=O)[C@H](Cc1ccc(O)cc1)NC(=O)[C@@H](N)Cc1c[nH]c2ccccc12 (H-WYCW-NH2)
Ki [13]: 11.2 µM
Ki [14]: 24.4 µM
Ki [15]: 4.2 µM
Ki [16]: 4.8 µM
